According to US11571397B2, “Compositions and methods for treating seizure-induced sudden death” (ZOGENIX INTERNATIONAL LIMITED, priority 2018, dated 2023):

What was measured:
[1] = tested on: children with refractory epilepsy; conditions: 0.5 to 1 mg/kg/day; cited from earlier work
Dravet syndrome patients = conditions: cited from earlier work
DBA/1 mice [2] = test: AGSz and S-IRA in DBA/1 mice tested for the first time at 16 h after FFA pretreatment; type: in vivo, mouse
Description: (§1) The typical seizure semiology in the DBA/1 mice begins with a wild running phase, followed by clonic-tonic seizures and then tonic hind-limb extension that immediately leads to S-IRA during post-ictal behavioral depression (PID). The onset of S-IRA was visually determined by the occurrence of respiratory failure following loss of the righting reflex, relaxation of the pinnae, and then a generalized loss of muscle tone. These behaviors are reliable indicators of imminent sudden death in DBA mice. Resuscitation was initiated within 10 s after pinna relaxation and the generalized loss of muscle tone, which was effective in reversing S-IRA and reviving >90% of the mice. The mice were placed in a supine position, and a polyethylene tube (4.4 mm external diameter) connected to the outflow of a rodent respirator (Harvard Apparatus 680), pumping one cc of room air at 200 strokes/min, was the placed over the nostrils, which produced observable displacement of the chest. Respiratory support was provided until spontaneous breathing rhythm returned, which required ˜19 sec. The mice were monitored until they regained the righting reflex and then returned to their home cage. Video recordings of seizure behaviors and recovery were made for off-line evaluation and analysis, including the duration of PID, as indicated by time from muscle tone loss to return of the righting reflex.
FIGS. 4A and 4B illustrate the reduction in the incidence of severe seizures and prevention of S-IRA by FFA pretreatment. In subsequent experiments, AGSz were examined in DBA/1 mice that were treated with 15 mg/kg of FFA i.p. but were initially tested at 16 h. […] [#p<0.001 (Chi-square test] (FIG. 4B). The return of S-IRA susceptibility (94.5%) in the FFA treated mice occurred at 48 h consistent with the previous findings (FIG. 2C).

DBA/1 mice [3] = test: AGSz and S-IRA in DBA/1 mice, 8-hour testing protocol; type: in vivo, mouse
Description: as §1
The experiments herein disclosed examined the dose-response relationship of FFA (10-40 mg/kg, i.p.) on AGSz-induced behaviors in DBA/1 mice compared to vehicle (saline) treated control mice using different seizure-testing protocols. This initial protocol involved induction of AGSz at 30 min, 12 h and 24 h after drug administration, and subsequently at 24 h intervals until susceptibility to S-IRA returned. These studies were aimed at determining whether FFA can reduce the incidence (frequency) and severity of AGSz and susceptibility to S-IRA. […] To determine the effect of FFA on the severity of AGSz in DBA/1 mice, the ordinal scoring system of De Sarro and coworkers was used: no seizure=0; wild running=1; clonic seizure=2; tonic seizure=3; death/S-IRA=4. The median effective dose (ED50) for FFA for blocking AGSz at 30 min following the i.p. injection in DBA/1 mice was calculated using a second order polynomial equation (y=65.113x^2-2.0715x-63.578) that gave the best fit (R^2=0.9989).
The videos of seizure behaviors were analyzed visually, and the incidence (frequency) of AGSz, seizure severity, and incidence (frequency) of S-IRA following drug treatment were compared statistically to vehicle controls using the Chi-square, Mann-Whitney U or paired samples t-test with SPSS software. The ED50 was calculated using SigmaPlot 13 and Microsoft® Excel. The experimental protocols used in these studies were approved by the Laboratory Animal Care and Use Committee of Southern Illinois University School of Medicine, which are in accordance with National Institutes of Health guidelines for the care and use of laboratory animals. Measures to minimize animal usage as well as pain and discomfort were included in these procedures.
FIGS. 2A through 2D show a time-course of selective S-IRA blocking effect of FFA in DBA/1 mice (8 h testing protocol). The 8-h testing protocol during the first 24 h was employed in the next group of studies of the effect of 5-20 mg/kg (i.p.) doses of FFA. […] The severity of AGSz remained unaffected in the mice that received 5 (light horizontal line bars; n=9) mg/kg FFA. A significant return of AGSz severity among the FFA treated DBA/1 mice occurred by 24 h. [**p<0.01; #p<0.001 indicate statistically different from controls, Mann-Whitney U test].

[4] = Preliminary pharmacokinetic experiments in DBA/1 mice; type: in vivo, mouse; conditions: 16 h after 15 mg/kg
Method: DBA/1 mice show consistent susceptibility to sudden death due to S-IRA immediately following AGSz unless resuscitation is rapidly provided. In the present study FFA exerted a significant dose- and time-dependent blockade of S-IRA and AGSz. […] The significant incidence of selective S-IRA blockade was also seen in the mice that were tested initially at 16 h following 15 mg/kg of FFA (FIG. 4B), further confirming the effectiveness of the drug and the time-course of the effect. […] Furthermore, the dose of 15 mg/kg FFA in adult mouse, based on body surface areas in accordance with Reagan-Shaw and co-workers, translates to the clinically effective range [1.8 mg/kg/day (child) or 1.2 mg/kg/day (adult)] used in patients. The presently disclosed FFA doses are also similar to those in the rodent studies, which established the original usefulness of this drug.

[5] = 15 mg/kg i.p., first tested at 16 h (n=73)

For `CCNC(C)Cc1cccc(C(F)(F)F)c1` (racemic) [FFA, 3-trifluoromethyl-N-ethylamphetamine], the “number of seizures experienced by the patients” value [1] is given as “reduction”, the “frequency and/or severity of intractable seizures” value (Dravet syndrome patients) is given as “significantly reduced” and the “overall incidence of S-IRA” value (DBA/1 mice [2]; [5]) is given as 21.9%. For the same molecule, the “overall incidence of tonic seizures” value (DBA/1 mice [2]; [5]) was 68.5%, the “incidence of selective S-IRA blockade among mice that continued to display tonic seizures” value (DBA/1 mice [2]; 15 mg/kg, 16 h (n=50)) was 68% and the “return of S-IRA susceptibility” value (DBA/1 mice [2]; at 48 h after 15 mg/kg) was 94.5%. For the same molecule, the “blocking any AGSz behavior” value (DBA/1 mice [3]; 5 mg/kg) was “ineffective”, the “effect against tonic seizures” value (DBA/1 mice [3]; 5 mg/kg) was “ineffective” and the “incidence of S-IRA” value (DBA/1 mice [3]; 5 mg/kg) was “not affected”. For the same molecule, the “severity of AGSz” value (DBA/1 mice [3]; 5 mg/kg) was “unaffected”, the “mice with selective blockade of S-IRA among those that showed tonic AGSz” value (DBA/1 mice [3]; 15 mg/kg, 16 h time point (n=5)) was 100% and the “total incidence of selective S-IRA blockade” value (DBA/1 mice [3]; 15 mg/kg, during time-course studies) was 70%. For the same molecule, the “median AGSz severity scores” value (DBA/1 mice [3]; 10, 15 and 20 mg/kg i.p., starting at 8 h, vs saline) was “significant reduction”, the “incidence of S-IRA” value (DBA/1 mice [3]; 10, 15 and 20 mg/kg, starting at 8 h, vs saline) was “significant reduction” and the “return of susceptibility to tonic seizures” value (DBA/1 mice [3]; 10-20 mg/kg) was 16 to 48 h. The “incidence of tonic seizures” value (DBA/1 mice [3]; 10-20 mg/kg, at 8 h, vs saline) was “significantly reduced”, the “duration of PID (loss of righting reflex)” value (DBA/1 mice [3]; 16 h after 15 mg/kg, mice with selective S-IRA blockade, pre-drug 168.6±43.4 s) was 34.6 ± 13.3 s and the “return of AGSz severity” value (DBA/1 mice [3]; FFA treated mice, 8-h protocol) was ≤ 24 h. For the same molecule, the “return of S-IRA susceptibility” value (DBA/1 mice [3]; FFA treated mice, 8-h protocol) was 48 h and the “plasma level of FFA and area under the curve vs levels in Dravet syndrome patients after single oral dose (0.8 mg/kg)” value [4] was “comparable”.
